The text below walks through data of the NIST ThermoML archive (doi:10.1021/je9008156).

Numbers after ± are expanded uncertainties.

The conditions of this data set: Crystal; visual observation.

Turning to `Nc1c(I)c(C(=O)NCC(O)CO)c(I)c(C(=O)NCC(O)CO)c1I` (stereo unspecified), the Normal melting temperature was 193.00 ± 0.5 °C.
